Calls of active or inactive are those of the source.
Legend:
Format in all cases: functional, organism-based
[1] = test system: Staphylococcus aureus; assay: Antimicrobial activity against Staphylococcus aureus
[2] = test system: Streptococcus pyogenes; assay: Antimicrobial activity against Streptococcus pyogenes
[3] = test system: Salmonella enterica subsp. enterica serovar Typhi str. CT18; assay: Antimicrobial activity against Salmonella typhi
[4] = test system: Shigella sonnei; assay: Antimicrobial activity against Shigella sonnei

Measured: Activity

COc1c(Br)cc2c(c1Br)OC(=O)C2=C(C)C
inactive: [1] | [2] | [3] | [4]

CCCCCO[C@]1(OC)C(Br)=C[C@@](O)(CC(N)=O)C=C1Br
inactive: [1] | [2] | [3] | [4]

COc1c(Br)cc2c(c1Br)OC(=N)C2
inactive: [1] | [2] | [3] | [4]

CCCCO[C@]1(OC)C(Br)=C[C@@](O)(CC(N)=O)C=C1Br
inactive: [1] | [2] | [3] | [4]
